One assay deals with T1, CXCR2 (Homo sapiens, UniProt P25025).
T1 construct: cultured under geneticin/G418 selection; membranes
T1 sequence (P25025 1-360): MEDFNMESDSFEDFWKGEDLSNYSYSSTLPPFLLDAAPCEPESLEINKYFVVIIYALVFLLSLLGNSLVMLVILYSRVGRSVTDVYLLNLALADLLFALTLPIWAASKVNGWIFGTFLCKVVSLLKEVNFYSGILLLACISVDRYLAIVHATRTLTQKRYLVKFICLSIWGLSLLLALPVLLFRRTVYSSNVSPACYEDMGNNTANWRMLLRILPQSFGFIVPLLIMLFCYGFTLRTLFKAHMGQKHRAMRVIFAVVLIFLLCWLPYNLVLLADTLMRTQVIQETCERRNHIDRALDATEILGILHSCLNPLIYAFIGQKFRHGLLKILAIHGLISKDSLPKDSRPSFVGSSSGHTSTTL
The assay can be described thus: [125I]-hIL-8 competition binding (SPA) on membranes of cells expressing human CXCR2. As to conditions: receptor binding, [125I]-hIL-8, RT for 4 h. The method, then:
Recombinant human fractalkine (hCX3CL1) and recombinant human interleukin-8 (IL-8 or hCXCL8) were purchased from PeproTech Inc., UK. Recombinant [^125I]-fractalkine (human) and [^125I] hIL-8 with the specific activity of 2200 Ci/mmol, was purchased from NEN® Life Science Products, Inc., UK. Fluo4-AM was purchased from Molecular Probes, US. All other chemicals were of analytical grade.
Cells expressing human CXCR2 obtained from AstraZeneca Charnwood are cultured in EMEM containing Glutamax and supplemented with 10% FBS (from PAA, Austria), 1% non-essential amino acids (NEAA), 100 U/mL penicillin and 100 μg/mL streptomycin (PEST) and 500 μg/mL geneticin/G418.
Cells are grown at 37° C. and 5% CO2 and harvested at 60-80% confluence in buffer containing 10 mM Tris-HCl pH 7.4, 5 mM EDTA, 0.1 mg/mL bacitracin. The cells are centrifuged at 300×g for 10 min and the pellet is resuspended in harvesting buffer (10 mM Tris-HCl, pH 7.4, 5 mM ethylenediaminetetra-aceticacid (EDTA) and 0.1 mg/mL bacitracin), pooled and homogenised using a Dounce homogeniser. The homogenate is centrifuged in 48000×g for 10 min and resuspended in harvesting buffer using Ultra-Turrax T8. Membrane aliquots are stored at −80° C. Protein concentration was determined in microtiter plates as described by Harrington (1990, Anal. Biochem. 186, 285-287).
The [^125I]-hIL-8 competition binding studies are performed in singlicates in white clear bottom 96-well isoplates with a final volume of 200 μL and each well contains 150 pM [^125I]-hIL-8 (specific activity 2200 Ci/mmol), membrane-SPA preparation equivalent to 20 pM receptors and 1.5 mg SPA-beads in assay buffer [50 mM HEPES-KOH pH 7.4, 10 mM MgCl2, 1 mM EDTA, 0.5% (w/v) gelatin]. The test compounds were treated as above. The non-specific binding is determined in the presence of 500 nM unlabelled hIL-8. The agonist hIL-8 (a concentration-response curve from 3 pM to 30 nM), is used as reference compound at each test occasion. […] The binding reaction is started by addition of 140 μL membrane-SPA preparation, and the samples are incubated in dark at RT for 4 h. Assay plates are counted in a liquid scintillation counter (Wallac MicroBeta® TriLux 1450 from PerkinElmer, USA).

The target of another assay is T2, CX3CR1 (Homo sapiens, UniProt P49238).
T2 construct: expressed in transfected cells; host or cells: human embryonic kidney suspension (HEKS) 293 cell line stably expressing chimeric G-protein Gαqi5; membranes
T2 sequence (P49238 1-355): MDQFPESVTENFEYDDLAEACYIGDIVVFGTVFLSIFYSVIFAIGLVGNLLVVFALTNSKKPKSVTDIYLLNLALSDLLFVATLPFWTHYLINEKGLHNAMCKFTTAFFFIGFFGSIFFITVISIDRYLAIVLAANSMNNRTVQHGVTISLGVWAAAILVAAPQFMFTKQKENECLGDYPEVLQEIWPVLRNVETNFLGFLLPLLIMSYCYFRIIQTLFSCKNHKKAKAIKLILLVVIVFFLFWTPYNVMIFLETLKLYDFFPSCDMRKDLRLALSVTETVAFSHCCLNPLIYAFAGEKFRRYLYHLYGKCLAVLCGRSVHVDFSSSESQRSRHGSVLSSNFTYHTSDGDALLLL
Nature of the assay: [125I]-fractalkine competition receptor binding assay on hCX3CR1 membranes. The conditions noted are these: 25° C. for 24 h.

pKi: −log10 of the molar value.

This is an account of results in US9440992B2, “5,7-disubstituted thiazolo[4,5-D]pyrimidines as chemokine inhibitors” (Acturum Life Science AB, priority 2005, dated 2016).

What is called pKi is the negative decadic logarithm of the Ki, by convention in mol/L. Read a high pKi as a small Ki.

From the text for CX3CR1: Recombinant human fractalkine (hCX3CL1) and recombinant human interleukin-8 (IL-8 or hCXCL8) were purchased from PeproTech Inc., UK. […] Fluo4-AM was purchased from Molecular Probes, US. All other chemicals were of analytical grade.
The complete human CX3CR1 cDNA (GenBank accession number U20350) was extracted from human brain mRNA (Superscript, Life Technologies) and ligated into pCR-Blunt II TOPO vector (InVitrogen). The insert corresponding hCX3CR1 was isolated and further subcloned into pcDNA3.1zeo. Plasmid DNA was prepared using Plasmid Midi Kit (Qiagen). […] A stable clone was generated utilizing zeocin (500 μg/mL) and hygromycin (100 μg/mL) selection. For further applications the cells were maintained in Dulbecco's modified Eagle's medium/Ham's nutrient mix F12 (DMEM/F12) containing pyridoxine and supplemented with 10% (v/v) fetal bovine serum, 2 mM L-glutamine, 100 U/ml penicillin and 100 mg/ml streptomycin, 250 μg/mL zeocin and 100 μg/mL hygromycin.
Ten concentrations (2 points/log unit) of the test compounds were pre-dissolved in DMSO and added to reach a final concentration of 1% (v/v) DMSO. The assay was initiated with the addition of membranes and incubated at 25° C. for 24 h. The reactions were stopped by rapid filtration through Whatman GF/B glass fiber filters pretreated with 0.3% polyethylimine and subsequent washing with ice-cold buffer (10 mM Hepes-KOH pH 7.4, 500 mM NaCl) using a Brandel receptor binding harvester. Scintillation cocktail was addedand radioactivity was determined in a Packard 2500TR liquid scintillation counter. (Perkin Elmer, USA)

With `CC(C)C[C@H](CO)Nc1nc(SCc2ccccc2)nc2nc(N)sc12` [reference compound], the pKi at CXCR2 was 6.27; on CX3CR1, 7.32.
Take `CC(C)C[C@H](CO)Nc1nc(SCc2cccc(C#N)c2)nc2nc(N)sc12` [reference compound]: the negative logarithm of the Ki (pKi) on CXCR2 is 5.70; at CX3CR1, 6.81.
With `CCC[C@H](CO)Nc1nc(S[C@@H](C)c2ccccc2)nc2nc(N)sc12`, the pKi at CXCR2 is 5.94; at CX3CR1, 7.28.
Taken in the same sequence, the figures for `CC(C)C[C@H](CO)Nc1nc(SCc2ccccc2Cl)nc2nc(N)sc12` [reference compound] were 5.74 and 7.29.
For `CC(C)C[C@H](CO)Nc1nc(SC(C)c2ccccc2)nc2nc(N)sc12` (stereo partly drawn), in that order: 5.46 and 8.42.
Taken in the same sequence, the figures for `CCC[C@H](CO)Nc1nc(SCc2ccccc2)nc2nc(N)sc12` [reference compound] were 6.27 and 6.23.
`CCC(Sc1nc(N[C@@H](CO)CC(C)C)c2sc(N)nc2n1)c1ccccc1` (stereo partly drawn): the negative logarithm of the Ki (pKi) is 5.56 on CXCR2 and 8.51 on CX3CR1.
With `CC(C)C[C@H](CO)Nc1nc(S[C@@H](C)c2cccc(C#N)c2)nc2nc(N)sc12`, the results for the pKi on CXCR2 and on CX3CR1 were 5.38 and 7.85, respectively.
Taken in the same sequence, the figures for `CC(C)C[C@H](CO)Nc1nc(SC(C)c2ccccc2Cl)nc2nc(N)sc12` (stereo partly drawn) were 5.25 and 8.23.
